Target: T1, Cannabinoid-1 receptor (CB1R) (Rattus norvegicus, UniProt P20272)
T1 construct: The tissue obtained from the brain of SD rats was homogenized; from tissue; host or cells: brain of SD rats (membrane pellet of the homogenate)
Assay: Cannabinoid-1 receptor (CB1R) binding affinity assay ([3H]CP-55940, rat CB-1 receptor binding protocol)
Conditions: IC50(nM), brain tissue of SD rats, [3H]CP-55940, 30° C. 60 min

T1 sequence (P20272 whole entry): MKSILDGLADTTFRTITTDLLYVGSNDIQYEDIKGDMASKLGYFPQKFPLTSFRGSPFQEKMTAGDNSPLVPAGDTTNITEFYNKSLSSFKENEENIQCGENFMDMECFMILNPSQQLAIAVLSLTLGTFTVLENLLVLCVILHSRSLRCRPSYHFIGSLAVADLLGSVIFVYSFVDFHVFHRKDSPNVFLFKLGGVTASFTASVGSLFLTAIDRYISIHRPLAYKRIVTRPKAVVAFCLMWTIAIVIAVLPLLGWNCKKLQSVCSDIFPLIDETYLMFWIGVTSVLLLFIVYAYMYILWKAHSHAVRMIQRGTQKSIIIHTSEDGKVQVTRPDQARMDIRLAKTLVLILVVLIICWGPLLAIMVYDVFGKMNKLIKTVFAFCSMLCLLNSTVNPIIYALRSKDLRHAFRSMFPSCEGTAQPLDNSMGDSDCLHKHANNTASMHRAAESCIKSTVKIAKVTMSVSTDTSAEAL

| Compound | IC50 [nM] |
| --- | --- |
| COC(=O)NC(C)c1c(-c2nnc(C(C)(C)C)s2)nn(-c2ccc(Cl)cc2Cl)c1-c1ccc(Br)cc1 (centres unmarked) [Example 532, Methyl 1-(5-(4-bromophenyl)-3-(5-tert-butyl-1,3,4-thiadiazol-2-yl)-1-(2,4-dichlorophenyl)-1H-pyrazol-4-yl)ethylcarbamate] | 8.75 |
| COc1ccc(C2(c3nnc(-c4nn(-c5ccc(Cl)cc5Cl)c(-c5ccc(Cl)cc5)c4C)o3)CC2)cc1 [Example 129, 2-(5-(4-chlorophenyl)-1-(2,4-dichlorophenyl)-4-methyl-1H-pyrazol-3-yl)-5-(1-(4-methoxyphenyl)cyclopropyl)-1,3,4-oxadiazole] | 9.46 |

Same assay, conditions: brain tissue of SD rats, [3H]CP-55940, 30° C. 60 min; read-out: IC50

| Compound | IC50 [nM] |
| --- | --- |
| CCc1c(-c2nnc(C3(C)CC3)s2)nn(-c2ccc(Cl)cc2Cl)c1-c1ccc(Cl)cc1 [Example 484, 2-(5-(4-chlorophenyl)-1-(2,4-dichlorophenyl)-4-ethyl-1H-pyrazol-3-yl)-5-(1-methylcyclopropyl)-1,3,4-thiadiazole] | 31.5 |
| CCc1c(-c2nnc(C3(c4ccc(OC)cc4)CC3)s2)nn(-c2ccc(Cl)cc2Cl)c1-c1ccc(Br)cc1 [Example 473, 2-(5-(4-bromophenyl)-1-(2,4-dichlorophenyl)-4-ethyl-1H-pyrazol-3-yl)-5-(1-(4-methoxyphenyl)cyclopropyl)-1,3,4-thiadiazole] | 4.53 |
| Cc1c(-c2n[nH]c(CC3CC3)n2)nn(-c2ccc(Cl)cc2Cl)c1-c1ccc(Cl)cc1 [Example 620, 3-(5-(4-chlorophenyl)-1-(2,4-dichlorophenyl)-4-methyl-1H-pyrazol-3-yl)-5-(cyclopropylmethyl)-1H-1,2,4-triazole] | 720 |
| Clc1ccc(-c2c(Br)c(-c3nnc(C4(c5ccc(Cl)cc5)CC4)o3)nn2-c2ccc(Cl)cc2Cl)cc1 [Example 344, 2-(4-bromo-5-(4-chlorophenyl)-1-(2,4-dichlorophenyl)-1H-pyrazol-3-yl)-5-(1-(4-chlorophenyl)cyclopropyl)-1,3,4-oxadiazole] | 11.6 |
| Cc1c(-c2nnc(C(C)(C)C)s2)nn(-c2ccc(Cl)cc2Cl)c1-c1cccc(Cl)c1 [Example 434, 2-tert-butyl-5-(5-(3-chlorophenyl)-1-(2,4-dichlorophenyl)-4-methyl-1H-pyrazol-3-yl)-1,3,4-thiadiazole] | 172 |
| CCc1c(-c2nnc(C3(c4cccc(Cl)c4)CC3)o2)nn(-c2ccc(Cl)cc2Cl)c1-c1ccc(Cl)cc1 [Example 258, 2-(5-(4-chlorophenyl)-1-(2,4-dichlorophenyl)-4-ethyl-1H-pyrazol-3-yl)-5-(1-(3-chlorophenyl)cyclopropyl)-1,3,4-oxadiazole] | 8.72 |
| CC(C)(C)c1nnc(-c2nn(-c3ccc(Cl)cc3Cl)c(-c3ccc(Br)cc3)c2COc2ccc(C(F)(F)F)cn2)s1 [Example 526, 2-(5-(4-bromophenyl)-1-(2,4-dichlorophenyl)-4-((5-(trifluoromethyl)pyridin-2-yloxy)methyl)-1H-pyrazol-3-yl)-5-tert-butyl-1,3,4-thiadiazole] | 31.3 |
| Cc1c(-c2nnc(C(C)C3CCCC3)s2)nn(-c2ccc(Cl)cc2Cl)c1-c1ccc(Cl)cc1 (centres unmarked) [Example 391, 2-(5-(4-chlorophenyl)-1-(2,4-dichlorophenyl)-4-methyl-1H-pyrazol-3-yl)-5-(1-cyclopentylethyl)-1,3,4-thiadiazole] | 14.3 |
| Cc1c(-c2nnc(Cc3ccccc3)s2)nn(-c2ccc(Cl)cc2Cl)c1-c1ccc(Cl)cc1 [Example 354, 2-benzyl-5-(5-(4-chlorophenyl)-1-(2,4-dichlorophenyl)-4-methyl-1H-pyrazol-3-yl)-1,3,4-thiadiazole] | 26 |
| CCCCc1nnc(-c2nn(-c3ccc(Cl)cc3Cl)c(-c3ccc(Cl)cc3)c2C)s1 [Example 355, 2-Butyl-5-(5-(4-chlorophenyl)-1-(2,4-dichlorophenyl)-4-methyl-1H-pyrazol-3-yl)-1,3,4-thiadiazole] | 46 |
| CCC(C)c1nnc(-c2nn(-c3ccc(Cl)cc3Cl)c(-c3ccc(Cl)cc3)c2Cl)o1 (centres unmarked) [Example 336, 2-sec-butyl-5-(4-chloro-5-(4-chlorophenyl)-1-(2,4-dichlorophenyl)-1H-pyrazol-3-yl)-1,3,4-oxadiazole] | 207 |
| Cc1c(-c2nnnn2Cc2ccncc2)nn(-c2ccc(Cl)cc2Cl)c1-c1ccc(Cl)cc1 [Example 587, 4-((5-(5-(4-Chlorophenyl)-1-(2,4-dichlorophenyl)-4-methyl-1H-pyrazol-3-yl)-1H-tetrazol-1-yl)methyl)pyridine] | 88.2 |
| CCc1c(-c2nnc(C3CCCCCC3)s2)nn(-c2ccc(Cl)cc2Cl)c1-c1ccc(Br)cc1 [Example 400, 2-(5-(4-bromophenyl)-1-(2,4-dichlorophenyl)-4-ethyl-1H-pyrazol-3-yl)-5-cycloheptyl-1,3,4-thiadiazole] | 5.26 |
| CC(C)(C)c1nnc(-c2nn(-c3ccc(Cl)cc3Cl)c(-c3ccc(Cl)cc3)c2Cn2cncn2)o1 [Example 296, 2-(4-((1H-1,2,4-triazol-1-yl)methyl)-5-(4-chlorophenyl)-1-(2,4-dichlorophenyl)-1H-pyrazol-3-yl)-5-tert-butyl-1,3,4-oxadiazole] | 2.36 |
| O=Cc1c(-c2nnc(C3(c4ccc(Cl)cc4)CC3)o2)nn(-c2ccc(Cl)cc2Cl)c1-c1ccc(Cl)cc1 [Example 204, 5-(4-chlorophenyl)-3-(5-(1-(4-chlorophenyl)cyclopropyl)-1,3,4-oxadiazol-2-yl)-1-(2,4-dichlorophenyl)-1H-pyrazole-4-carbaldehyde] | 5.39 |
| OCc1c(-c2nnc(C3(c4ccc(Cl)cc4)CC3)o2)nn(-c2ccc(Cl)cc2Cl)c1-c1ccc(Cl)cc1 [Example 201, (5-(4-chlorophenyl)-3-(5-(1-(4-chlorophenyl)cyclopropyl)-1,3,4-oxadiazol-2-yl)-1-(2,4-dichlorophenyl)-1H-pyrazol-4-yl)methanol] | 4.02 |
| COC(=O)NC(C)c1c(-c2nnc(C(C)(C)C)o2)nn(-c2ccc(Cl)cc2Cl)c1-c1ccc(Br)cc1 (centres unmarked) [Example 230, Methyl 1-(5-(4-bromophenyl)-3-(5-tert-butyl-1,3,4-oxadiazol-2-yl)-1-(2,4-dichlorophenyl)-1H-pyrazol-4-yl)ethylcarbamate] | 9.01 |

The next lines start with the values.

| IC50 [nM] | Compound |
| --- | --- |
| 227 | CCN(C)Cc1c(-c2nnc(C(C)(C)C)o2)nn(-c2ccc(Cl)cc2Cl)c1-c1ccc(Cl)cc1 [Example 290, N-((3-(5-tert-butyl-1,3,4-oxadiazol-2-yl)-5-(4-chlorophenyl)-1-(2,4-dichlorophenyl)-1H-pyrazol-4-yl)methyl)-N-methylethanamine] |
| 54.1 | CCc1c(-c2nnc(C3CC4CCC3C4)s2)nn(-c2ccc(Cl)cc2Cl)c1-c1ccc(Br)cc1 (centres unmarked) [Example 452, 2-(bicyclo[2.2.1]heptan-2-yl)-5-(5-(4-bromophenyl)-1-(2,4-dichlorophenyl)-4-ethyl-1H-pyrazol-3-yl)-1,3,4-thiadiazole] |
| 40.6 | Cc1c(-c2ncc(CC(C)C)o2)nn(-c2ccc(Cl)cc2Cl)c1-c1ccc(Cl)cc1 [Example 641, 2-(5-(4-chlorophenyl)-1-(2,4-dichlorophenyl)-4-methyl-1H-pyrazol-3-yl)-5-isobutyloxazole] |
| 37.6 | Cc1c(-c2nnc(CC3CCCCC3)o2)nn(-c2ccc(Cl)cc2Cl)c1-c1ccc(Br)cc1 [Example 56, 2-(5-(4-bromophenyl)-1-(2,4-dichlorophenyl)-4-methyl-1H-pyrazol-3-yl)-5-(cyclohexylmethyl)-1,3,4-oxadiazole] |
| 18.4 | CCC(C)c1nnc(-c2nn(-c3ccccc3Cl)c(-c3ccc(Cl)cc3)c2C)s1 (centres unmarked) [Example 407, 2-sec-butyl-5-(1-(2-chlorophenyl)-5-(4-chlorophenyl)-4-methyl-1H-pyrazol-3-yl)-1,3,4-thiadiazole] |
| 16.9 | CCCCC(C)c1nnc(-c2nn(-c3ccc(Cl)cc3Cl)c(-c3ccc(Cl)cc3)c2C)s1 (centres unmarked) [Example 379, 2-(5-(4-Chlorophenyl)-1-(2,4-dichlorophenyl)-4-methyl-1H-pyrazol-3-yl)-5-(hexan-2-yl)-1,3,4-thiadiazole] |
| 11.2 | Cc1c(-c2nnc(C(C)c3ccccc3)s2)nn(-c2ccc(Cl)cc2Cl)c1-c1ccc(Cl)cc1 (centres unmarked) [Example 381, 2-(5-(4-chlorophenyl)-1-(2,4-dichlorophenyl)-4-methyl-1H-pyrazol-3-yl)-5-(1-phenylethyl)-1,3,4-thiadiazole] |
| 7.26 | Cc1ccc(C2(c3nnc(-c4nn(-c5ccc(Cl)cc5Cl)c(-c5ccc(Cl)cc5)c4C)o3)CC2)cc1 [Example 131, 2-(5-(4-chlorophenyl)-1-(2,4-dichlorophenyl)-4-methyl-1H-pyrazol-3-yl)-5-(1-p-tolylcyclopropyl)-1,3,4-oxadiazole] |
| 7.05 | CCc1c(-c2nnc(C3(c4ccc(C)cc4)CC3)o2)nn(-c2ccc(Cl)cc2Cl)c1-c1ccc(Cl)cc1 [Example 151, 2-(5-(4-chlorophenyl)-1-(2,4-dichlorophenyl)-4-ethyl-1H-pyrazol-3-yl)-5-(1-p-tolylcyclopropyl)-1,3,4-oxadiazole] |
| 6.66 | CCc1c(-c2nnc(C3(Cc4ccc(Cl)cc4)CC3)s2)nn(-c2ccc(Cl)cc2Cl)c1-c1ccc(Br)cc1 [Example 472, 2-(1-(4-chlorobenzyl)cyclopropyl)-5-(5-(4-bromophenyl)-1-(2,4-dichlorophenyl)-4-ethyl-1H-pyrazol-3-yl)-1,3,4-thiadiazole] |
| 6.44 | CC(C)(C)c1nnc(-c2nn(-c3ccc(Cl)cc3Cl)c(-c3ccc(Br)cc3)c2Cn2ncnn2)o1 [Example 302, 2-(4-((2H-tetrazol-2-yl)methyl)-5-(4-bromophenyl)-1-(2,4-dichlorophenyl)-1H-pyrazol-3-yl)-5-tert-butyl-1,3,4-oxadiazole] |
| 6.35 | CC(C)(C)c1nnc(-c2nn(-c3ccc(Cl)cc3Cl)c(-c3ccc(Br)cc3)c2CO)o1 [Example 200, (5-(4-bromophenyl)-3-(5-tert-butyl-1,3,4-oxadiazol-2-yl)-1-(2,4-dichlorophenyl)-1H-pyrazol-4-yl)methanol] |
| 5.75 | CCc1c(-c2nnc(C3(c4ccc(Cl)cc4)CCC3)o2)nn(-c2ccccc2Cl)c1-c1ccc(Cl)cc1 [Example 147, 2-(1-(2-chlorophenyl)-5-(4-chlorophenyl)-4-ethyl-1H-pyrazol-3-yl)-5-(1-(4-chlorophenyl)cyclobutyl)-1,3,4-oxadiazole] |
